Laboratory results as given in PMC4492750, “The discovery of a selective and potent A2a agonist with extended lung retention” (Pharmacology Research & Perspectives, 2015).
≈ marks a conversion by molar mass, not a printed value. Like-named read-outs stand apart in the source and are kept apart here.

How the values were obtained:
[1] = test system: LPS-induced TNFα production in rat splenocytes; test: LPS-induced TNFα production in rat mononuclear spleen cells (rTNFα splenocytes); format: cell-based; conditions: Splenocyte, LPS-stimulated TNFα release, rat splenocytes, average (SD); for Emax: read-out: rTNFα splenocytes Intrinsic activity
Experimental: (§1) • Human A2a and A2b receptor pharmacology: Chinese hamster ovary CHO-K1 cells stably expressing human A2a and A2b receptors were used to determine substances agonistic potency and intrinsic activity. […] The signal corresponding to adenosine at 100 μmol/L was used to define 100% intrinsic activity. • Human A3 receptor pharmacology: A3 receptor Gi coupling was measured by GTPγ ^35[S] filter assay at serial dilutions of compound using membranes from Perkin-Elmer. The signal corresponding to the maximal response of NECA at 100 μmol/L was set to 100% intrinsic activity. • Lipopolysaccharide (LPS)-induced TNFα production in primary human peripheral blood mononuclear cells (hTNFα PBMC) and rat mononuclears (rTNFα splenocytes): Human PBMC and rat mononuclear spleen cells were incubated with serial dilutions of compound and stimulated with LPS.
Procedures and assays were run in R10 buffer (RPMI 1640 Medium supplemented with GlutaMAX™ and HEPES (GIBCO-BRL), 10% fetal calf serum, penicillin and streptomycin (each 5000IU/ml)). Human PBMC were purified from heparinised blood by Ficoll separation (Ficoll, Amersham Pharmacia Biotech AB, Cat: 17-1440-03, Lot: 312170) and rat mononuclear cells were collected after rat spleen perfusion. Both cell preparations were followed by hypotonic lysis of residual erythrocytes. Serial dilutions of compounds were pre-incubated with 200 000 cells/well (96-well plate) for 45min in 37 °C (190µl). Cells were stimulated by 10µl LPS (final concentration 0.5ng/ml human and 150ng/ml rat; SIGMA Cat: L-4516, Lot: 104K4036) for 18h at 37 °C. TNFα release was measured by ELISA (^TmR&D Systems plates) according to the manufacturer’s instructions in cell free supernatant.

[2] = Plasma protein binding by equilibrium dialysis; format: in vitro ADME; conditions: male, Wistar, pH 7.4, rat plasma, 10 μmol/L, read-out: fu rat (free unbound drug in plasma)
Experimental: as §1
The plasma protein binding was determined in plasma from male Wistar rats at a compound concentration of 10μM by equilibrium dialysis against a phosphate buffer at pH 7.4 using a semi-permeable membrane with a molecular cut-off of 6-8KDa (Spectra/Por, Spectrum Laboratories Inc, US). The compounds were dialyzed for 18h at 37±1°C in an air incubator on an orbital shaker. The samples were analysed using LC-MS/MS.

[3] = Lipophilicity (LogD), shake flask; format: physicochemical; conditions: octanol-water, phosphate buffer pH 7.4; for logD at 10 min: 1-octanol / phosphate buffer
Experimental: as §1
The octanol-water partition coefficient (LogD) was measured using the shake flask method. 600µL of 1-octanol was added to a vial with 6µL of 10mM DMSO-solution of the test compound. 600µL of 10mM sodium phosphate buffer adjusted to pH 7.4 was added and equilibrium was performed by vigorous shaking for ten minutes with an Eppendorf mixer. The phases were separated by centrifugation. The samples were analysed by HPLC with UV-detection at 254nm.

[4] = In vivo pharmacokinetics in rats (i.v., oral, intratracheal); conditions: for Rat blood clearance: i.v.; for half-life: lung, inhaled or intranasal, intratracheal dosing, n = 2/time point, read-out: Lung t½ (terminal half-life in lung) (converted); for Kp at 24 h: other: intratracheal (i.t.), i.t., ratio of lung concentration 24 h after dose to blood Cmax after same dose, read-out: Lung/blood split
Experimental: Rat PK was determined after an i.v. dose of 0.1μmol/kg (approximately 50μg/kg, 1ml/kg, TEG:H2O 50:50) given via a catheter in vena jugularis. The PK after oral administration was performed at a dose of 6μmol/kg (approximately 3mg/kg, 4ml/kg, 0.5% HPMC) given by gavage. Intratracheal PK was determined at 0.03 to 0.6μmol/kg (17 to 300μg/kg, 1ml/kg, in a vehicle containing sodium chloride (8.5mg/ml), EDTA (0.1mg/ml), citric acid (0.15mg/ml), sodium citrate (0.5mg/ml) and polysorbate 80 (0.2mg/mL) in purified water). The i.t. dose was given to anaesthetized (isofluran) rats, positioned at approximately 30° angle (head up) and the compound was administered in the trachea using a modified metal cannula. Rats were put back in their cages while regaining consciousness. Serial blood sampling of 100 to 200µl was performed after i.v. and p.o. dosing at pre-defined timepoints. Blood was mixed 1:4 with purified water containing heparin (10 to 30U/ml) in order to haemolyse the blood cells, and then placed in a 96-well plate and stored at –70°C until analysed. The dilution factor was accounted for in the data analysis. After i.t. dosing, animals were euthanized with isoflurane or pentobarbital at defined timepoints after dosing, blood samples taken from the vena jugularis or arteria carotis, handled and stored as described above. The rats were bled to drain as much blood as possible from the lungs. The lungs including the trachea were carefully dissected out with all non-relevant tissue removed, placed in pre-weighed vials and weighed. The lung vials were stored at –70°C until analyzed.
Lung tissue was frozen in liquid nitrogen and homogenised using a CryoPrep pneumatic hammer. The homogenisation of the tissue and the extraction of the compound were done in 4ml Ringer solution with an Adaptive Focused Acoustic Instrument. 50µl of the supernatant was transferred to a 96-well plate. All lung, blood and plasma samples were analysed by LC-MS/MS using a selective and sensitive method. Peak areas were used in comparison to those produced by the standard curve to determine parent compound concentrations. Homogenate concentrations were adjusted to account for the sample dilutions to give tissue concentrations.

[5] = test system: LPS-induced BAL neutrophils; test: LPS-induced lung inflammation model, neutrophils in BAL fluid; format: in vivo, rat; conditions: data not shown
Experimental: The efficacy of the compound on neutrophils in BAL fluid is expressed as per cent inhibition of the full window (negative veh/veh controls vs. the positive veh/LPS controls): Inhibition (%) of LPS-induced BAL neutrophils by compound 2 was calculated using the following formula: [drawing 1] where A is the average in the group administered with vehicle and challenged with LPS; B is the average in the group administered with vehicle and challenged with saline; and C is the average in the group administered with test compound and challenged with LPS.
Animals in all efficacy studies were dosed intratracheally as described above in a buffered saline vehicle (pH 5) containing sodium chloride (8.5mg/ml), citric acid (0.28mg/ml) and sodium citrate (0.5mg/ml). The compound was dissolved in saline when given intravenously (0.9% NaCl) to the swivelled rats.
[…] Each rat was given LPS from the Pseudomona Aeruginosa bacteria (1µg/rat, 5µg/ml saline, Sigma-Aldrich, Sweden).
24 hours after the LPS challenge, rats were anaesthetized and exsanguinated via a cardiac incision. A tube was inserted and ligated to the trachea. The tube was connected to a syringe with 4ml PBS (without Ca^2+/Mg^2+) and a lavage of the whole lung was performed manually. The BAL fluid was collected individually in polyethylene tubes and kept on ice until further processed.
The BAL fluid was centrifuged and the supernatant separated from the cell pellet that was resuspended in 1.0ml of PBS. The total number of cells and cell differentia was counted in an automated cell counter and haematology analyzer (SYSMEX XT-1800iV, software for the rat BALF).

[6] = test system: allergen-challenged Brown Norway rats; parameters: method as in Fozard et al. [2002]; conditions: intratracheal; ref Fozard et al. [2002]; cited from earlier work
[7] = Substance solubility in phosphate buffer; format: physicochemical; conditions: aqueous buffer, thermodynamic from solid; phosphate buffer pH 7.4, dry compound in solid state
Experimental: as §1
Solubility was measured in phosphate buffer at pH 7.4 using dry compounds in solid state.

[8] = biological target: A2a (Homo sapiens, UniProt P29274); test: Human A2a receptor pharmacology: cAMP Alphascreen in CHO-K1 cells; format: cell-based; parameters: expressed in transfected cells; host or cells: CHO-K1; conditions: average (SD); for Emax: CHO-K1, 100% = 10 μmol/L NECA, read-out: A2a human CHO-K1 cells Intrinsic activity; for EC50: cAMP generation
Experimental: as §1
Chinese hamster ovary CHO-K1 cells stably expressing human A2a and A2b receptors were stored as 1ml aliquots at -150 °C in freezing medium, thawed immediately prior to assay. […] Cells (10000 cells/well) were incubated with test compounds prepared as serial dilutions. Potency (EC50) and efficacy (% of maximal response) were calculated from data fitted to a 4-parameter logistic function. The signal of 10µM NECA represented the maximal cAMP response (i.e. 100% of efficacy) produced by these cells.

[9] = test system: heart; parameters: method as in Macallum et al. [1991]; conditions: oral, dog study; ref Macallum et al. [1991]; cited from earlier work
[10] = parameters: method as in Mantell et al. [2009], [2010]; conditions: over the dose range tested; ref Mantell et al. [2009], [2010]; cited from earlier work
[11] = test system: patients with COPD; parameters: method as in Mantell et al. [2009], [2010]; conditions: ref Mantell et al. [2009], [2010]; cited from earlier work
[12] = parameters: method as in Mantell et al. [2010]; conditions: ref Mantell et al. [2010]; cited from earlier work

Chain of A2a (P29274 whole entry): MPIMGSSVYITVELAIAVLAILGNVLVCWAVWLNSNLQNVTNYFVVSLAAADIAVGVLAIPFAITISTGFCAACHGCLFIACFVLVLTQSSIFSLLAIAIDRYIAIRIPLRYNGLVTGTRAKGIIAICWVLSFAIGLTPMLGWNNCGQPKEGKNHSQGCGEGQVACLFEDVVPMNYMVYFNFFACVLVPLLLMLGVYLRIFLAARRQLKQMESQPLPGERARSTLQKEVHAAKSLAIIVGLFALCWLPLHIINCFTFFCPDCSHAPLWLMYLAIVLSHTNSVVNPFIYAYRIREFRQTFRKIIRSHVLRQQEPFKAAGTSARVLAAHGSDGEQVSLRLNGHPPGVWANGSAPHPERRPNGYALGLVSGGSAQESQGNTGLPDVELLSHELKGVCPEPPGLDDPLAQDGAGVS

SMILES	IC50 [1] [nM]	Emax [1] [%]	fraction unbound at 18 h, 10 μM [2]	logD at 10 min [3]	Rat blood clearance ([4]; mean of n = 3) [mL/min per kg]	half-life ([4]; rat) [h]	Kp at 24 h ([4]; rat)	solubility [7] [µM]	Emax [8] [%]	EC50 [8] [nM]	also measured
CCNC(=O)[C@H]1O[C@@H](n2cnc3c(N)nc(NCCc4ccc(CCC(=O)O)cc4)nc32)[C@H](O)[C@@H]1O [CGS21680, 3-[4-[2-[[6-amino-9-[(2R,3R,4S,5S)-5-(ethylcarbamoyl)-3,4-dihydroxy-tetrahydrofuran-2-yl]purin-2-yl]amino]ethyl]phenyl]propanoic acid, reference compound]	6.9	63.5	0.17	< -1	26	1	< 0.08	–	–	–	Percentage of dose remaining in lung at 4 h ([4]; rat, single i.t. dose 300 μg/kg, 4 h): less than 1%; Pretreatment time at which maximal efficacy was seen [5]: 30 min; Effect on lung inflammation [6]: inhibited lung inflammation
CCNC(=O)[C@H]1O[C@@H](n2cnc3c(NC(CC)CC)nc(NCCNC(=O)Nc4ccncc4)nc32)[C@H](O)[C@@H]1O [Compound 1, (2S,3S,4R,5R)-N-ethyl-5-[6-(1-ethylpropylamino)-2-[2-(4-pyridylcarbamoylamino)ethylamino]purin-9-yl]-3,4-dihydroxy-tetrahydrofuran-2-carboxamide]	3.2	53.4	0.2	2	65	6	1.8	> 1000	102	2.4	bioavailability ([4]; whole blood, 6 umol/kg, rat, oral, mean of n = 3, read-out: Rat oral F (bioavailability)): 1.4%
CCNC(=O)[C@H]1O[C@@H](n2cnc3c(NCC(c4ccccc4)c4ccccc4)nc(NCCNC(=O)Nc4cc[n+](C)cc4)nc32)[C@H](O)[C@@H]1O [Compound 3, (2S,3S,4R,5R)-5-[6-(2,2-diphenylethylamino)-2-[2-[(1-methylpyridin-1-ium-4-yl)carbamoylamino]ethylamino]purin-9-yl]-N-ethyl-3,4-dihydroxy-tetrahydrofuran-2-carboxamide]	0.2	58	0.11	-0.35	42	80	1800	420	96.2	0.4	Percentage of dose remaining in lung at 24 h ([4]; rat, single i.t. dose (17 and 20 μmol/kg for compounds 2 and 3 as printed in Fig. 5), 24 h): 52%
OC[C@H]1O[C@@H](n2cnc3c(NCC(c4ccccc4)c4ccccc4)ncnc32)[C@H](O)[C@@H]1O [DPEA, N-(2,2-diphenylethyl) adenosine]	–	–	–	–	–	–	–	–	–	–	Myocardial findings [9]: myocardial degeneration and necrosis
CCNC(=O)[C@H]1O[C@@H](n2cnc3c(NCC(c4ccccc4)c4ccccc4)nc(C(=O)NCCNC(=O)NC4CCN(c5ccccn5)CC4)nc32)[C@H](O)[C@@H]1O [UK-432,097, 6-(2,2-diphenylethylamino)-9-[(2R,3R,4S,5S)-5-(ethylcarba-moyl)-3,4-dihydroxy-tetrahydrofuran-2-yl]-N-[2-[[1-(2-pyridyl)-4-piperidyl]carbamoylamino]ethyl]purine-2-carboxamide, reference compound]	2.6	60.9	0.014	–	37	4	2.7	12 (≈ 9.33 µg/mL)	–	–	LogD [3]: 3.4; Percentage of dose remaining in lung at 6 h ([4]; rat, i.t. dose 130 μg/kg, 6 h): approximately 3%; Safety in Phase I clinical study [10]: no safety limitation; Efficacy in Phase II study [11]: failed to show efficacy; Clearance [12]: rapid; Oral bioavailability [12]: low; Plasma protein binding [12]: high; solubility [12]: low
